Data reported in article PMC12614342, “Azetidine amino acid biosynthesis by non-haem iron-dependent enzymes” (Nature Chemistry, 2025).

Columns and labels:
PolF [1] = molecular target: T1, PolF (Streptomyces asoensis, UniProt C1IC29); conditions: Fe(II)2 form; L-Ile bidentate on Fe1; TEV-cleaved tagless protein, crystals grown with 15 mM L-Ile, pH 8.5
PolE = molecular target: T2, PolE (Streptomyces asoensis, UniProt C1IC30); conditions: Fe(II), BH4, O2, ascorbate; 50 mM HEPES pH 7.6, 25 °C
T2 construct: gene Saso_24180
T2 sequence (C1IC30 entry or part of it): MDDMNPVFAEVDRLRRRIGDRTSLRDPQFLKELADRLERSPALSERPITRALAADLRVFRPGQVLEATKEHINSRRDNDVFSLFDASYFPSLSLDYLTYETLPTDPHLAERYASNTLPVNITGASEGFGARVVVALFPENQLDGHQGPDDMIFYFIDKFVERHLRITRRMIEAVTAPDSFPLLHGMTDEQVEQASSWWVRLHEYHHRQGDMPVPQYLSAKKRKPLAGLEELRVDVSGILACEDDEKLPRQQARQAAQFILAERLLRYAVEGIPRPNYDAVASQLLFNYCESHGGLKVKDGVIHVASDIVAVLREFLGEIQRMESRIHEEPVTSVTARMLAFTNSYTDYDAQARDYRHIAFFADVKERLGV

PolF [2] = molecular target: T1, PolF; conditions: Fe(II), O2, ascorbate; 50 mM HEPES pH 7.6, 25 °C (stopped-flow 5 °C, no ascorbate)

Compound | X-ray crystal structure of the complex (PolF [1]) | LC-MS of dansylated desaturation product (PolE) | LC-MS of dansylated products; stopped-flow at 614 nm (PolF [2])
CC[C@H](C)[C@H](N)C(=O)O [L-Ile] | The L-Ile substrate directly coordinates Fe1 in a bidentate fashion | PolE catalysed the desaturation of L-Ile in the presence of BH4 | –
CC(C)[C@H](N)C(=O)O [L-Val] | – | – | the reaction with L-Val yielded a product with a −4-Da modification
